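48-hour exposure; five concentrations; linearly interpolated endpoints. TGI: total growth inhibition.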
Key:
Assay in all cases: NCI tumour cell line growth inhibition, 48 h
[1] = tested on: M19-MEL melanoma
[2] = tested on: DMS 114 small cell lung
[3] = tested on: LXFL 529 NSCLC
[4] = tested on: DLD-1 colon
[5] = tested on: XF 498 CNS
[6] = tested on: KM20L2 colon
[7] = tested on: RXF-631 renal
[8] = tested on: SNB-78 CNS
[9] = tested on: HOP-18 NSCLC
[10] = tested on: SN12K1 renal
[11] = tested on: P388 leukemia
[12] = tested on: P388/ADR leukemia

Compound | TGI [1] [µM] | TGI [2] [µM] | TGI [3] [µM] | TGI [4] [µM] | TGI [5] [µM] | TGI [6] [µM] | TGI [7] [µM] | TGI [8] [µM] | TGI [9] [µM] | TGI [10] [µM] | TGI [11] [µM] | TGI [12] [µM]
CC(C)OP(=O)(OC(C)C)c1nc(-c2ccccc2)n(-c2ccc([N+](=O)[O-])cc2)n1 | > 100 | > 100 | > 100 | > 100 | > 100 | > 100 |  |  |  |  |  | 
CCCCCCCCCCCCCCCCCCN(C)C(COC)COP(=O)([O-])OCC[N+](C)(C)C (stereo not drawn) | 12.9 |  | 15.4 | 13.8 | 39.8 | 6.92 | 26 | 18.3 | 17 |  |  | 
O=P1(Oc2ccc(Cl)cc2Cl)Oc2ccc3ccccc3c2-c2c(ccc3ccccc23)O1 | 47.9 |  |  | > 100 | 56.7 | > 76.2 |  | > 83.8 | > 100 | 43.1 | > 100 | > 100
COc1ccc(C2SCC(=O)N2NC(=O)c2ccncc2)cc1F (stereo not drawn) |  | > 100 | > 100 | > 100 | > 100 | > 100 |  | > 100 | > 100 |  |  | 
COc1ccc2cc3[nH]c(=O)cc(O)c3cc2c1OC | > 100 | > 100 | > 100 |  | > 100 | > 100 | > 100 | > 100 | > 100 |  |  | 

From PubChem BioAssay (NCI)
